# Where a name gives a salt, the structure may show the parent alone.
# System: Acinetobacter baumannii ATCC17961
# Test: Antimicrobial susceptibility testing: 90% growth inhibitory concentration (IC90) determination in Iso-Sensitest broth, OD600 growth
# Type: cell-based
# Conditions: Acinetobacter baumannii, ATCC17961, 16 h, read-out: A. baumannii ATCC 17961 IC90 (uM), strain ATCC 17961, OD600 growth over 16 h
# Protocol: Antimicrobial Susceptibility Testing:
# 90% Growth Inhibitory Concentration (IC90) Determination
# The in vitro antimicrobial activity of the compounds was determined according to the following procedure:
# The assay used a 10-points Iso-Sensitest broth medium to measure quantitatively the in vitro activity of the compounds against Acinetobacter baumannii ATCC17961 or ATCC17968.
# Stock compounds in DMSO were serially twofold diluted (e.g. range from 50 to 0.097 μM final concentration) in 384 wells microtiter plates and inoculated with 49 μl the bacterial suspension in Iso-Sensitest medium to have a final cell concentration of ˜5×10^(5) CFU/ml in a final volume/well of 50 ul/well. Microtiter plates were incubated at 35±2° C.
# Bacterial cell growth was determined with the measurement of optical density at λ=600 nm each 20 minutes over a time course of 16 h. Growth inhibition was calculated during the logarithmic growth of the bacterial cells with determination of the concentration inhibiting 50% (IC50) and 90% (IC90) of the growth.
# Table 7 provides the 90% growth inhibitory concentrations (IC90) in micromoles per liter of the compounds of present invention obtained against the strain Acinetobacter baumannii ATCC17961 and/or ATCC17968.
row,Compound,IC90 [µM]
1,"N#CCn1cc(-c2cnc3c(Nc4ccc(C(=O)N5CCN(C(=O)[C@H]6C[C@H](N)C6)CC5)c(Cl)c4)nccn23)c(C(F)(F)F)n1 [Example 12, 2-[4-[8-[4-[4-(3-aminocyclobutanecarbonyl)piperazine-1-carbonyl]-3-chloroanilino]imidazo[1,2-a]pyrazin-3-yl]-3-(trifluoromethyl)pyrazol-1-yl]acetonitrile formate]",0.176
2,"CNCC1(O)CCN(C(=O)c2ccc(Nc3nccn4c(-c5cn(CC#N)nc5C(F)(F)F)cnc34)cc2Cl)CC1 [Example 14, 2-[4-[8-[3-chloro-4-[4-hydroxy-4-(methylaminomethyl)piperidine-1-carbonyl]anilino]imidazo[1,2-a]pyrazin-3-yl]-3-(trifluoromethyl)pyrazol-1-yl]acetonitrile formate]",0.141
3,"CCc1cc(Nc2nccn3c(-c4cn(CCC(C)C)nc4C(F)(F)F)cnc23)ccc1C(=O)NCCOCCN [Example 28, N-[2-(2-aminoethoxy)ethyl]-2-ethyl-4-[[3-[1-(3-methylbutyl)-3-(trifluoromethyl)pyrazol-4-yl]imidazo[1,2-a]pyrazin-8-yl]amino]benzamide formate]",0.369
4,"CCc1cc(Nc2nccn3c(-c4cn(CC#N)nc4C(F)(F)F)cnc23)ccc1C(=O)NCCOCCN [Example 29, N-[2-(2-aminoethoxy)ethyl]-4-[[3-[1-(cyanomethyl)-3-(trifluoromethyl)pyrazol-4-yl]imidazo[1,2-a]pyrazin-8-yl]amino]-2-ethylbenzamide formate]",0.107
5,"CCc1cc(Nc2nccn3c(-c4cn(CC)nc4C(F)(F)F)cnc23)ccc1C(=O)NCCOCCN [Example 31, N-[2-(2-aminoethoxy)ethyl]-2-ethyl-4-[[3-[1-ethyl-3-(trifluoromethyl)pyrazol-4-yl]imidazo[1,2-a]pyrazin-8-yl]amino]benzamide formate]",0.175
6,"CCc1cc(Nc2nccn3c(-c4cn(CCC#N)nc4C(F)(F)F)cnc23)ccc1C(=O)NCCOCCN [Example 33, N-[2-(2-aminoethoxy)ethyl]-4-[[3-[1-(2-cyanoethyl)-3-(trifluoromethyl)pyrazol-4-yl]imidazo[1,2-a]pyrazin-8-yl]amino]-2-ethylbenzamide formate]",0.269
7,"CCc1cc(Nc2nccn3c(-c4cn(CCOC)nc4C(F)(F)F)cnc23)ccc1C(=O)NCCOCCN [Example 34, N-[2-(2-aminoethoxy)ethyl]-2-ethyl-4-[[3-[1-(2-methoxyethyl)-3-(trifluoromethyl)pyrazol-4-yl]imidazo[1,2-a]pyrazin-8-yl]amino]benzamide formate]",0.367

# Same assay, conditions: Acinetobacter baumannii, ATCC17961, 16 h, strain ATCC 17961, OD600 growth over 16 h, read-out: A. baumannii ATCC 17961 IC90
row,Compound,IC90 [µM]
1,"CCc1cc(Nc2nccn3c(-c4c[nH]nc4C(F)(F)F)cnc23)ccc1C(=O)NCCCNC(=O)[C@@H](N)CNC(=N)N [Example 13, N-[3-[[(2S)-2-amino-3-carbamimidamidopropanoyl]amino]propyl]-2-ethyl-4-[[3-[3-(trifluoromethyl)-1H-pyrazol-4-yl]imidazo[1,2-a]pyrazin-8-yl]amino]benzamide formate]",0.166
2,"CCc1cc(Nc2nccn3c(-c4cn(Cc5cc[nH]n5)nc4C(F)(F)F)cnc23)ccc1C(=O)NC [Example 15, 2-ethyl-N-methyl-4-[[3-[1-(1H-pyrazol-3-ylmethyl)-3-(trifluoromethyl)pyrazol-4-yl]imidazo[1,2-a]pyrazin-8-yl]amino]benzamide]",0.251
3,"C#CCn1cc(-c2cnc3c(Nc4ccc(C(=O)NCCOCCN)c(C)c4)nccn23)c(C(F)(F)F)n1 [Example 16, N-[2-(2-aminoethoxy)ethyl]-2-methyl-4-[[3-[1-prop-2-ynyl-3-(trifluoromethyl)pyrazol-4-yl]imidazo[1,2-a]pyrazin-8-yl]amino]benzamide]",0.069
4,"CCc1cc(Nc2nccn3c(-c4cn(CC#N)nc4C(F)F)cnc23)ccc1C(=O)NCCOCCN [Example 18, N-[2-(2-aminoethoxy)ethyl]-4-[[3-[1-(cyanomethyl)-3-(difluoromethyl)pyrazol-4-yl]imidazo[1,2-a]pyrazin-8-yl]amino]-2-ethylbenzamide]",0.26
5,"CCCn1cc(-c2cnc3c(Nc4ccc(C(=O)NCCOCCN)c(CC)c4)nccn23)c(C(F)(F)F)n1 [Example 25, N-[2-(2-aminoethoxy)ethyl]-2-ethyl-4-[[3-[1-propyl-3-(trifluoromethyl)pyrazol-4-yl]imidazo[1,2-a]pyrazin-8-yl]amino]benzamide hydrochloride]",0.141
6,"CCc1cc(Nc2nccn3c(-c4cn(C5CCCC5)nc4C(F)(F)F)cnc23)ccc1C(=O)NCCOCCN [Example 26, N-[2-(2-aminoethoxy)ethyl]-4-[[3-[1-cyclopentyl-3-(trifluoromethyl)pyrazol-4-yl]imidazo[1,2-a]pyrazin-8-yl]amino]-2-ethylbenzamide hydrochloride]",0.282
7,"CCc1cc(Nc2nccn3c(-c4cn(C(C)C)nc4C(F)(F)F)cnc23)ccc1C(=O)NCCOCCN [Example 27, N-[2-(2-aminoethoxy)ethyl]-2-ethyl-4-[[3-[1-propan-2-yl-3-(trifluoromethyl)pyrazol-4-yl]imidazo[1,2-a]pyrazin-8-yl]amino]benzamide hydrochloride]",0.306

# Second part, the compound after the results:
row,IC90 [µM],Compound
1,0.185,"CCc1cc(Nc2nccn3c(-c4cn(CC(F)F)nc4C(F)(F)F)cnc23)ccc1C(=O)NCCNC(=O)[C@@H]1CCCN1 [Example 35, (2S)-N-[2-[[4-[[3-[1-(2,2-difluoroethyl)-3-(trifluoromethyl)pyrazol-4-yl]imidazo[1,2-a]pyrazin-8-yl]amino]-2-ethylbenzoyl)amino]ethyl]pyrrolidine-2-carboxamide]"
2,0.348,"CCc1cc(Nc2nccn3c(-c4cn(C(F)F)nc4C(F)(F)F)cnc23)ccc1C(=O)NCCNC(=O)[C@@H]1CCCN1 [Example 36, (2S)-N-[2-[[4-[[3-[1-(difluoromethyl)-3-(trifluoromethyl)pyrazol-4-yl]imidazo[1,2-a]pyrazin-8-yl]amino]-2-ethylbenzoyl)amino]ethyl] pyrrolidine-2-carboxamide]"
3,0.239,"C#CCNC(=O)c1c(C)cc(Nc2nccn3c(-c4cn(CC(F)F)nc4C(F)(F)F)cnc23)cc1F [Example 37, 4-[[3-[1-(2,2-difluoroethyl)-3-(trifluoromethyl)pyrazol-4-yl]imidazo[1,2-a]pyrazin-8-yl]amino]-2-fluoro-6-methyl-N-prop-2-ynylbenzamide]"
4,0.327,"C#CCNC(=O)c1c(C)cc(Nc2nccn3c(-c4cn(Cc5nc(CC6CC6)no5)nc4C(F)(F)F)cnc23)cc1F [Example 38, 4-[[3-[1-[[3-(cyclopropylmethyl)-1,2,4-oxadiazol-5-yl]methyl]-3-(trifluoromethyl)pyrazol-4-yl]imidazo[1,2-a]pyrazin-8-yl]amino]-2-fluoro-6-methyl-N-prop-2-ynylbenzamide]"
5,0.47,"CCc1cc(Nc2nccn3c(-c4c[nH]nc4C(F)(F)F)cnc23)ccc1C(=O)NCCNC(=O)[C@@H]1CCCN1 [Example 39, (2S)-N-[2-[[2-ethyl-4-[[3-[3-(trifluoromethyl)-1H-pyrazol-4-yl]imidazo[1,2-a]pyrazin-8-yl]amino]benzoyl]amino]ethyl] pyrrolidine-2-carboxamide]"
6,0.254,"C#CCNC(=O)c1c(C)cc(Nc2nccn3c(-c4cn(CC=C)nc4C(F)(F)F)cnc23)cc1F [Example 41, 2-fluoro-6-methyl-4-[[3-[1-prop-2-enyl-3-(trifluoromethyl)pyrazol-4-yl]imidazo[1,2-a]pyrazin-8-yl]amino]-N-prop-2-ynylbenzamide]"
7,0.354,"C#CCNC(=O)c1c(C)cc(Nc2nccn3c(-c4cn(CCF)nc4C(F)(F)F)cnc23)cc1F [Example 42, 2-fluoro-4-[[3-[1-(2-fluoroethyl)-3-(trifluoromethyl)pyrazol-4-yl]imidazo[1,2-a]pyrazin-8-yl]amino]-6-methyl-N-prop-2-ynylbenzamide]"

# Same assay, conditions: strain ATCC 17961, OD600 growth over 16 h, read-out: A. baumannii ATCC 17961 IC90
row,Compound,IC90 [µM]
1,"CCc1cc(Nc2nccn3c(-c4c(C(F)(F)F)n[nH]c4C)cnc23)ccc1C(=O)NCCOCCN [Example 24, N-[2-(2-aminoethoxy)ethyl]-2-ethyl-4-[[3-[5-methyl-3-(trifluoromethyl)-1H-pyrazol-4-yl]imidazo[1,2-a]pyrazin-8-yl]amino] benzamide formate]",0.523
2,"CCc1cc(Nc2nccn3c(-c4cn(CCC(F)(F)F)nc4C(F)(F)F)cnc23)ccc1C(=O)NCCOCCN [Example 32, N-[2-(2-aminoethoxy)ethyl]-2-ethyl-4-[[3-[3-(trifluoromethyl)-1-(3,3,3-(trifluoropropyl)pyrazol-4-yl]imidazo[1,2-a]pyrazin-8-yl]amino]benzamide formate]",0.19

# The next lines start with the values.
row,IC90 [µM],Compound
1,0.159,"CCc1cc(Nc2nccn3c(-c4cn(CC5CC5)nc4C(F)(F)F)cnc23)ccc1C(=O)NCCOCCN [Example 30, N-[2-(2-aminoethoxy)ethyl]-4-[[3-[1-(cyclopropylmethyl)-3-(trifluoromethyl)pyrazol-4-yl]imidazo[1,2-a]pyrazin-8-yl]amino]-2-ethylbenzmamide formate]"
2,0.196,"C#CCNC(=O)c1c(C)cc(Nc2nccn3c(-c4cn(CC#C)nc4C(F)(F)F)cnc23)cc1F [Example 40, 2-fluoro-6-methyl-N-prop-2-ynyl-4-[[3-[1-prop-2-ynyl-3-(trifluoromethyl)pyrazol-4-yl]imidazo[1,2-a]pyrazin-8-yl]amino] benzamide]"
